Measured values: ChEMBL document CHEMBL5465560, “Selectivity Literature for EUbOPEN Chemogenomic Library” (2024)

Assays:
[1] = biological target: Ribosomal protein S6 kinase alpha-1 (Homo sapiens, UniProt Q15418); assay: Selectivity interaction (KinomeScan (DiscoverX)) EUB0000311b RPS6KA1; conditions: at 1 µM
[2] = biological target: Receptor tyrosine-protein kinase erbB-3 (Homo sapiens) (UniProt P21860); assay: Selectivity interaction (KinomeScan (DiscoverX)) EUB0000595a ERBB3; conditions: at 10 µM
[3] = biological target: MAP kinase-interacting serine/threonine-protein kinase 2 (Homo sapiens, UniProt Q9HBH9); assay: Selectivity interaction (KinomeScan (DiscoverX)) EUB0000045b MKNK2
MAP kinase-interacting serine/threonine-protein kinase 2, sequence (Q9HBH9 whole entry, looked up): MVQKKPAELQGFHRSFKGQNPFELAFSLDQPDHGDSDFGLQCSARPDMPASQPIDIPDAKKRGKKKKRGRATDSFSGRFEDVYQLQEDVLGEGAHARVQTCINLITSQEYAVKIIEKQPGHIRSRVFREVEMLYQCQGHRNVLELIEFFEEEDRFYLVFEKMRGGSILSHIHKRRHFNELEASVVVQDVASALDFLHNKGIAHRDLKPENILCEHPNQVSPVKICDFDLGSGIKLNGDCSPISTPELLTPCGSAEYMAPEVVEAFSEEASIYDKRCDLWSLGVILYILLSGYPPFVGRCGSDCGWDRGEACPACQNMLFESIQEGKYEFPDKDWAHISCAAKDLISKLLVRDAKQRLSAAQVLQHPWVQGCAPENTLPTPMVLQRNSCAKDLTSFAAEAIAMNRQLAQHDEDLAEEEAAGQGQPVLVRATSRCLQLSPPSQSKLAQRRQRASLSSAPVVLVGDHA

[4] = biological target: Mitogen-activated protein kinase kinase kinase kinase 4 (Homo sapiens, UniProt O95819); assay: Selectivity interaction (KinomeScan (DiscoverX)) EUB0000045b MAP4K4
Mitogen-activated protein kinase kinase kinase kinase 4, sequence (O95819 2-1239 limits assumed): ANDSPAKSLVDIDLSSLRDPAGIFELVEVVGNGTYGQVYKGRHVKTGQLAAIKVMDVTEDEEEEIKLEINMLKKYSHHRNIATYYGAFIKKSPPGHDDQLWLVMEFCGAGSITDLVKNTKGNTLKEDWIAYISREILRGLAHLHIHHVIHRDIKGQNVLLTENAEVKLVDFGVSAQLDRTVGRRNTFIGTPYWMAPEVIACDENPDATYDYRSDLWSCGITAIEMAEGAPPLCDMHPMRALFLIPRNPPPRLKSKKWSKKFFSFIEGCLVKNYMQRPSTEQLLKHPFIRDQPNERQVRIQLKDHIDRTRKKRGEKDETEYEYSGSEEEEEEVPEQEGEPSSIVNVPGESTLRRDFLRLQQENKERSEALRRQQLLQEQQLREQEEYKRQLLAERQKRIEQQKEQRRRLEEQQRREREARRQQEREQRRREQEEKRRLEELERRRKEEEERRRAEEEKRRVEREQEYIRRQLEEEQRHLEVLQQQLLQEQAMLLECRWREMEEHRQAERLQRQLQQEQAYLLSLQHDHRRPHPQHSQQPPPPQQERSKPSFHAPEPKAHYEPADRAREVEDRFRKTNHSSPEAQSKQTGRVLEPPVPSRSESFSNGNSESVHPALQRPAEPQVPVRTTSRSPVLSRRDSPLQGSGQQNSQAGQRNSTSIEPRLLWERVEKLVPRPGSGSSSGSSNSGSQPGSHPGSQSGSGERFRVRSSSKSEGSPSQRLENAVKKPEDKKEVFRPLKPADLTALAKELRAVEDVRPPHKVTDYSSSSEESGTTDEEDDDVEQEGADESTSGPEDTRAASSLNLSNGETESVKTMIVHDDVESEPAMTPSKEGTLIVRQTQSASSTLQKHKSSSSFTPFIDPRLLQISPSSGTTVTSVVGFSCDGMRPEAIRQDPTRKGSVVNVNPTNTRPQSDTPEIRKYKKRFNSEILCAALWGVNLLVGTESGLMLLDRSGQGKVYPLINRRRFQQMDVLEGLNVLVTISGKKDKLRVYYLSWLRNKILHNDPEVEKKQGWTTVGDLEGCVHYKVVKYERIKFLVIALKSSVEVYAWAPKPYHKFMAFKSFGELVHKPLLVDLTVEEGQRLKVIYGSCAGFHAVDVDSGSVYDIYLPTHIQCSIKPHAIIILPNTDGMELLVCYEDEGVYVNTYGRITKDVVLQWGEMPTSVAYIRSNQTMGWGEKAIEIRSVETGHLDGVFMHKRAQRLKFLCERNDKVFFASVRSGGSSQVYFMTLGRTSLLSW

[5] = biological target: AP2-associated protein kinase 1 (Homo sapiens, UniProt Q2M2I8); assay: Selectivity interaction (KinomeScan (DiscoverX)) EUB0000045b AAK1
AP2-associated protein kinase 1, sequence (Q2M2I8 whole entry, looked up, canonical isoform): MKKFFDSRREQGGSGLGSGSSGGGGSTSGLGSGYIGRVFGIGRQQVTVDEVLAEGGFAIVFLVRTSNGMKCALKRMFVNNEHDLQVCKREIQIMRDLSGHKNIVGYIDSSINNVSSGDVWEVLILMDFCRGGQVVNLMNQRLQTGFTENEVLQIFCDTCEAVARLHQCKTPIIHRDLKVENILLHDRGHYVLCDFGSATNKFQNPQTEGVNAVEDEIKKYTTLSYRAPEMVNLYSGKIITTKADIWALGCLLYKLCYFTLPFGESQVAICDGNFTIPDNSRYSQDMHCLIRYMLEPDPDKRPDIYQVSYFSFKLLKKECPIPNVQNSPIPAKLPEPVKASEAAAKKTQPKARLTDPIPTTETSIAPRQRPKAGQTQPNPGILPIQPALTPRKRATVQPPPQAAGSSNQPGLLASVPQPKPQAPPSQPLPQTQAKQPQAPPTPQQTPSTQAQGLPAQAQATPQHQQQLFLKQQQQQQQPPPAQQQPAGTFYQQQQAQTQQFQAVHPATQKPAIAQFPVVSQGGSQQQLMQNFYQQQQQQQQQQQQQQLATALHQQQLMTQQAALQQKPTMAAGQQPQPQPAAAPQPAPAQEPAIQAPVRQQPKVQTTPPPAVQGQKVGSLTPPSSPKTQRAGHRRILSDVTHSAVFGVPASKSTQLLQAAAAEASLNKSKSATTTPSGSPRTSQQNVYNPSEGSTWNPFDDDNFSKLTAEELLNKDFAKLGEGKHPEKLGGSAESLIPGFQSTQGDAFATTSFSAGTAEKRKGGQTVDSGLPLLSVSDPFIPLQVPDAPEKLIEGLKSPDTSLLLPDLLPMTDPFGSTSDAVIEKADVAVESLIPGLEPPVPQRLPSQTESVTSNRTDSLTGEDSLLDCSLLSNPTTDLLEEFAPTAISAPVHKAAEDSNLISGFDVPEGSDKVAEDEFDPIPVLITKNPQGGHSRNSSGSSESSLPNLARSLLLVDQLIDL

[6] = biological target: Phosphatidylinositol 4,5-bisphosphate 3-kinase catalytic subunit gamma isoform (Homo sapiens) (UniProt P48736); assay: Selectivity interaction (KinomeScan (DiscoverX)) EUB0000045b PIK3CG; conditions: at 1 µM
[7] = biological target: T1, NUAK family SNF1-like kinase 2 (Homo sapiens) (UniProt Q9H093); assay: Selectivity interaction (KinomeScan (DiscoverX)) EUB0000695a NUAK2; conditions: at 100 nM
T1 sequence (whole entry): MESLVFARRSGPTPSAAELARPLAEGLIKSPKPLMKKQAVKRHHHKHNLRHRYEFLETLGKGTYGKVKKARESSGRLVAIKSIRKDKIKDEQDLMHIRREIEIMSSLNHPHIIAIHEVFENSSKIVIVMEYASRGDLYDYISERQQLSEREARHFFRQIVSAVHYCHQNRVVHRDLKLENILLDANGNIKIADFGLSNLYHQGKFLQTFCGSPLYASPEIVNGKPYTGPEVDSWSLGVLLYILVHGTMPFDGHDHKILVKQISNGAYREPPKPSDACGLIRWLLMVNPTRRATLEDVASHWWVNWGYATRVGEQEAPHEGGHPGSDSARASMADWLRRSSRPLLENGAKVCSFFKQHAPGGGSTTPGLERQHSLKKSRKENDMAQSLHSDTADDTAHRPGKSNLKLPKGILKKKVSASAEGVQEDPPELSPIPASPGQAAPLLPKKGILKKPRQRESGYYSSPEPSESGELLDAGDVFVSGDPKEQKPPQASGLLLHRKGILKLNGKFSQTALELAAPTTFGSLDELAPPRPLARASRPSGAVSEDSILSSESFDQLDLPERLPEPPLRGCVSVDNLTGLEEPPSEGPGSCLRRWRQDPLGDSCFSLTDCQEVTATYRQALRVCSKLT

[8] = biological target: Dual specificity protein kinase CLK3 (Homo sapiens, UniProt P49761); assay: Selectivity interaction (KinomeScan (DiscoverX)) EUB0001079a CLK3; conditions: at 1 µM
Dual specificity protein kinase CLK3, sequence (P49761 whole entry, looked up): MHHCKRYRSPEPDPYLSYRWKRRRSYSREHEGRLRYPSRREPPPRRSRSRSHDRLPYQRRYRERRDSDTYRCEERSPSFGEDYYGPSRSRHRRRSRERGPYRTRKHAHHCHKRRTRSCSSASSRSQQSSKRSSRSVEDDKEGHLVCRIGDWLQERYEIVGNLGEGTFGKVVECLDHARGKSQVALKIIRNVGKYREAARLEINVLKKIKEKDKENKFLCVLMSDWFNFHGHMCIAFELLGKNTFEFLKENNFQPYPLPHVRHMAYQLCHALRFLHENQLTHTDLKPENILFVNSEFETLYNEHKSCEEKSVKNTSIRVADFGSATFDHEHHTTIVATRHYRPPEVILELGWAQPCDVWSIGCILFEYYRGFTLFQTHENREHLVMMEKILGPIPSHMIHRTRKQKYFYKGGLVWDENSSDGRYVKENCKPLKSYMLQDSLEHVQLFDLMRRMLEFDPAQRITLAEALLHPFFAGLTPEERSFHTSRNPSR

[9] = system: Tyrosine-protein kinase ABL1 (Homo sapiens), P00519 [Q252H]; conditions: at 10 µM
Mu-type opioid receptor = Mu-type opioid receptor (Homo sapiens, UniProt P35372); assay: Selectivity interaction (Panel of non-epigenetic targets (kinases, GPCRs, ion channels, and transporters, Eurofins) ) EUB0000271b OPRM1; conditions: at 1 µM
Mu-type opioid receptor, sequence (P35372 whole entry): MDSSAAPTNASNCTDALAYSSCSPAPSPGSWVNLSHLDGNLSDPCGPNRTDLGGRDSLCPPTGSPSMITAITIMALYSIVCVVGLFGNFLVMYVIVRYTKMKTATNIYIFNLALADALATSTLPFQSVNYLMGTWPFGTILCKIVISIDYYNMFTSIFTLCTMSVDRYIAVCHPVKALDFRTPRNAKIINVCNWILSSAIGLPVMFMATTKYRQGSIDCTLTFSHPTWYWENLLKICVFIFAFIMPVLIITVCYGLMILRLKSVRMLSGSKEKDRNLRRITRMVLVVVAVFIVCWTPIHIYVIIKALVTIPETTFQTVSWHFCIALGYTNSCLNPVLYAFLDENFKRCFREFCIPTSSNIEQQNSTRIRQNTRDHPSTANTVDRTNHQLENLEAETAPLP

[10] = biological target: Tyrosine-protein kinase HCK (Homo sapiens) (UniProt P08631); assay: Selectivity interaction (KinomeScan (DiscoverX)) EUB0001049a HCK; conditions: at 1 µM
[11] = biological target: Glycogen synthase kinase-3 beta (Homo sapiens, UniProt P49841); assay: Selectivity interaction (Kinase panel (33PanQinase(R) Activity Assay)) EUB0000877a GSK3B
Glycogen synthase kinase-3 beta, sequence (P49841 whole entry): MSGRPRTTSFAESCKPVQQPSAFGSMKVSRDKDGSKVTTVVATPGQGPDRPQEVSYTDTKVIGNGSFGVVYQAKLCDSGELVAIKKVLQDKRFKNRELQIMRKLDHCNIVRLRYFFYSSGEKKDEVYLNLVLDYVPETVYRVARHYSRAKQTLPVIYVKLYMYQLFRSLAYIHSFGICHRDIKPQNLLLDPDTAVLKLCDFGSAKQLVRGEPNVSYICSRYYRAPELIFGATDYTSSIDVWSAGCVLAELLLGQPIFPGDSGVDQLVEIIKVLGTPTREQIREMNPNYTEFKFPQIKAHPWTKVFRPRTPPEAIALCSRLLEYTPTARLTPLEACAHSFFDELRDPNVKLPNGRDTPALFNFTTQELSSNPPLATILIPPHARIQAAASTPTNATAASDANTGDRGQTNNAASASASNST

[12] = biological target: Protein kinase C alpha type (Homo sapiens, UniProt P17252); assay: Selectivity interaction (Kinase panel (33PanQinase(R) Activity Assay)) EUB0000877a PRKCA
[13] = biological target: Tyrosine-protein kinase ABL1 (Homo sapiens, UniProt P00519); assay: Selectivity interaction (ActivX KiNativ screen (ex vivo kinase selectivity in human PBMCs)) EUB0001619a ABL1; assay type: cell-based; conditions: PBMC, at 1 µM
[14] = biological target: Angiopoietin-1 receptor (Homo sapiens) (UniProt Q02763); assay: Selectivity interaction (Kinase panel (literature)) EUB0001199aCl TEK; conditions: at 1 µM
[15] = biological target: Proto-oncogene tyrosine-protein kinase Src (Homo sapiens, UniProt P12931); assay: Selectivity interaction (SelectScreen profiling (Invitrogen)) EUB0000607a SRC; conditions: at 2 µM
[16] = biological target: 5'-AMP-activated protein kinase catalytic subunit alpha-1 (Homo sapiens, UniProt Q13131); assay: Selectivity interaction (ActivX KiNativ screen (kinase selectivity in THP-1 cell lysates)) EUB0000639a PRKAA1; assay type: subcellular; conditions: lysate, at 0.2 µM
5'-AMP-activated protein kinase catalytic subunit alpha-1, sequence (Q13131 whole entry, looked up): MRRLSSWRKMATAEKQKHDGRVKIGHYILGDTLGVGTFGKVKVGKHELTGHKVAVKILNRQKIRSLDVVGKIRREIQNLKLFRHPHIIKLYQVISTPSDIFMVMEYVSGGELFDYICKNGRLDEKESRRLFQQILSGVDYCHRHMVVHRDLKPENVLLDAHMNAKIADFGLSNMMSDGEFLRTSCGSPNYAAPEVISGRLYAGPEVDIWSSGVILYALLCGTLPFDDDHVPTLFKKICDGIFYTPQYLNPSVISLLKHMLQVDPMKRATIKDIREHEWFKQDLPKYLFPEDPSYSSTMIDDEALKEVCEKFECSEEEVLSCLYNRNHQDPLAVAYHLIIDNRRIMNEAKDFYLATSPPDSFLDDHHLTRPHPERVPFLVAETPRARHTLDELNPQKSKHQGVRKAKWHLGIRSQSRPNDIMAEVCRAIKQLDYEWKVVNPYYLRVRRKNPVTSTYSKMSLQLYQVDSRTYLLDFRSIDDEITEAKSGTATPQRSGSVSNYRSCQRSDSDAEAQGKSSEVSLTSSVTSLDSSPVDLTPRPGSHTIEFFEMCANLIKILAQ

[17] = biological target: T2, Tyrosine-protein kinase ITK/TSK (Homo sapiens) (UniProt Q08881); assay: Selectivity interaction (Kinase panel (Invitrogen)) EUB0000639a ITK; conditions: at 200 nM
T2 sequence (whole entry): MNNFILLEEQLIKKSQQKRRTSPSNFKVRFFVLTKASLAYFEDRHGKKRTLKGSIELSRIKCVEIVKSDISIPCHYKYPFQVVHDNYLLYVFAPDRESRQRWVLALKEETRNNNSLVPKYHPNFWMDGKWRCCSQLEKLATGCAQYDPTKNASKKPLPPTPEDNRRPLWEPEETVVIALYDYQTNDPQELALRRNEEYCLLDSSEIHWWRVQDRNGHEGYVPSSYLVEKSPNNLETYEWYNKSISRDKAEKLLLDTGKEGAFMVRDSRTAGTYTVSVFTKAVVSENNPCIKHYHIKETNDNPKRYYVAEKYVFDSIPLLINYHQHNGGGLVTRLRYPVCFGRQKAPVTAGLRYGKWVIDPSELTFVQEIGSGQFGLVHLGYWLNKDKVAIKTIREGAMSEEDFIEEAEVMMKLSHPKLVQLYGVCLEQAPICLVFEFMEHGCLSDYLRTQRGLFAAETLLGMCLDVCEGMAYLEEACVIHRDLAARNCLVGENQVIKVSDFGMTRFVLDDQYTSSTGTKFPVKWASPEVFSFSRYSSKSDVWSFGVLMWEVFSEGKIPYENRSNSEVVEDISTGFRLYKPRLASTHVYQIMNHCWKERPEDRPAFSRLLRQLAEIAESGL

[18] = system: Tyrosine-protein kinase ABL1 (Homo sapiens), P00519 [T315I]; assay: Selectivity interaction (KinomeScan (DiscoverX)) EUB0000655a ABL1; conditions: at 10 µM
[19] = biological target: Tyrosine-protein kinase JAK1 (Homo sapiens, UniProt P23458); assay: Selectivity interaction (KinomeScan (DiscoverX)) EUB0000655a JAK1; conditions: at 10 µM
[20] = biological target: Casein kinase II subunit alpha' (Homo sapiens) (UniProt P19784); conditions: at 10 µM
Casein kinase II subunit alpha' (Homo sapiens), sequence (P19784 whole entry, looked up): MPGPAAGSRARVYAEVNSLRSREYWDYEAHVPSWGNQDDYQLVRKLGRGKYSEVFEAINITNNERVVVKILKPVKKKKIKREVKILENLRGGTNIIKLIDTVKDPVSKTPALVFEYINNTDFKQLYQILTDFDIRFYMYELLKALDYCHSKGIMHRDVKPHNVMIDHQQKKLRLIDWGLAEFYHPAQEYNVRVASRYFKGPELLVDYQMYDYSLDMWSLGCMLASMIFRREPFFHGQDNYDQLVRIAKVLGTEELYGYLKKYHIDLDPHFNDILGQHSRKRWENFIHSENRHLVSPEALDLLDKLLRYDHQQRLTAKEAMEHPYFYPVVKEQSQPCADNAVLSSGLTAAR

[21] = biological target: STE20-like serine/threonine-protein kinase (Homo sapiens, UniProt Q9H2G2); assay: Selectivity interaction (KinomeScan (DiscoverX)) EUB0000092b SLK; conditions: at 10 µM

`CCc1ccccc1C(=O)Nc1n[nH]c2c(C)c(F)c(C3C(C#N)=C(C)N(C)C(C)=C3C#N)cc12` [BAY-3827] gave a % of control [1] of 1.8%.

`COCC(=O)NC/C=C/c1ccc2ncnc(Nc3ccc(Oc4ccc(C)nc4)c(C)c3)c2c1` [CP-724714] was tested, and the % of control [2] was 20%.

`C=CC(=O)Nc1cc(-n2c(=O)ccc3cnc4ccc(-c5ccc(NS(C)(=O)=O)cc5)cc4c32)ccc1C` was tested, and the % of control ([3]; at 1 µM) was 100%, the % of control ([3]; at 10 µM) was 52% and the % of control ([4]; at 1 µM) was 100%. For the same compound, the % of control ([4]; at 10 µM) was 100%, the % of control ([5]; at 1 µM) was 93% and the % of control ([5]; at 10 µM) was 58%. For the same compound, the % of control [6] was 2.8%.

`Cc1cc(F)c(C(=O)Nc2cccc(-c3nncn3C(C)C)n2)cc1-n1cnc(C2CC2)c1` was tested, and the % of control [7] was 94%.

With `Nc1cnc(N2CCc3cc(S(=O)(=O)Nc4c(F)cc(Cl)cc4F)cc(N4CCCC4=O)c32)nc1` [TP-020n] the % of control [8] was 74%.

Compound `Cc1cc([C@@H](C)Nc2ccccc2C(=O)O)c2nc(N3CCOCC3)cc(=O)n2c1` [AZD-6482] has a % of control [9] of 100%.

`Cc1cc(C)cc([C@@H]2c3cc(C)ccc3NC(=O)CN2C(=O)c2ccc(Br)s2)c1` gave a % of inhibition (Mu-type opioid receptor) of 4%.

Work on `COc1cc(Nc2nc(C)cc(-c3cnn4nc(OC)ccc34)n2)cc(C(F)(F)F)c1` yielded a % of control [10] of 100%.

In the case of `CCC(=O)N1CC[C@H](Nc2ncnc3c2CN(c2cnc(OC)c(C(F)(F)F)c2)CC3)C1` [LENIOLISIB], the IC50 [11] is reported as greater than 10 µM and the IC50 [12] is reported as greater than 10 µM.

Work on `N#Cc1cccc(-c2c[nH]c3ncnc(N4CCOCC4)c23)c1` yielded a % of inhibition [13] of -1%.

Work on `CN1Cc2nccc(-c3cn(C)nc3-c3ccc(F)cc3)c2C1=O` yielded a % of inhibition [14] of 1%.

`CNC(=O)Nc1ccc(-c2nc(N3CC4CCC(C3)O4)c3cnn(C4CCC5(CC4)OCCO5)c3n2)cc1` was tested, and the % of inhibition [15] was 7%.

With `CC[C@@H]1[C@H](F)C(=O)N[C@@H]1COc1nccc2cc(C(N)=O)c(OC)cc12` [ZIMLOVISERTIB] the % of inhibition [16] was 8.7% and the % of inhibition [17] was -1.94%.

`CN(C)CCOc1ccc(-c2nc(-c3ccncc3)c(-c3ccc4c(c3)CC/C4=N\O)[nH]2)cc1` showed a % of control [18] of 5.4% and a % of control [19] of 100%.

`CCN(CC)CCCCNc1ncc2cc(-c3cc(OC)cc(OC)c3)c(NC(=O)NC(C)(C)C)nc2n1` showed a % of control [20] of 100%.

Work on `CCC(=O)N1CCN(c2ccc(-n3c(=O)ccc4cnc5ccc(-c6cnc7ccccc7c6)cc5c43)cc2C(F)(F)F)CC1` yielded a % of control [21] of 94%.
